Data reported in ChEMBL document CHEMBL1137124, “Lysine sulfonamides as novel HIV-protease inhibitors: Nepsilon-disubstituted ureas” (Bioorg Med Chem Lett, 2004).

Legend:
[1] = target: Human immunodeficiency virus type 1 protease (Human immunodeficiency virus 1, UniProt Q72874); assay: Inhibition constant for HIV aspartyl protease
[2] = tested on: Human immunodeficiency virus; assay: Effective concentration against wild type HIV virus was determined in anti-viral assay; assay type: functional, organism-based; settings: Human immunodeficiency virus 1
[3] = tested on: Human immunodeficiency virus; assay: Effective concentration against wild type virus HIV virus was determined in anti-viral assay; assay type: functional, organism-based; settings: Human immunodeficiency virus 1

Structure (SMILES) | Ki [1] | EC50 [2] | EC50 [3]
Cc1ccc(S(=O)(=O)N(CC(C)C)[C@@H](CCCCNC(=O)N(Cc2ccccc2)Cc2ccccc2)C(=O)O)cc1 | 7.2 nM | – | –
COc1ccc(CN(Cc2ccc3c(c2)OCO3)C(=O)NCCCC[C@@H](CO)N(CC(C)C)S(=O)(=O)c2ccc(N)cc2)cc1 | 2.2 nM | 500 nM | –
CC(C)CN([C@H](CO)CCCCNC(=O)N(Cc1ccccc1)Cc1cccc2c1OCO2)S(=O)(=O)c1ccc(N)cc1 | 5.4 nM | > 10000 nM | –
CC(C)CCN([C@H](CO)CCCCNC(=O)N(Cc1ccccc1)Cc1ccccc1)S(=O)(=O)c1ccc(N)cc1 | 5.8 nM | – | > 10000 nM
COc1ccc(CN(Cc2ccc3c(c2)OCO3)C(=O)NCCCC[C@@H](CO)N(CCC(C)C)S(=O)(=O)c2ccc(N)cc2)cc1 | 2.9 nM | – | 700 nM
CC(C)CCN([C@H](CO)CCCCNC(=S)N(Cc1ccc(F)cc1)Cc1ccc2c(c1)OCCO2)S(=O)(=O)c1ccc(N)cc1 | 9.9 nM | – | –
Cc1ccc(S(=O)(=O)N(CC(C)C)[C@@H](CCCCNC(=O)N(Cc2ccccc2)Cc2ccncc2)C(=O)O)cc1 | 3.7 nM | – | –
CC(C)CN([C@H](CO)CCCCNC(=O)N(Cc1ccc2c(c1)OCO2)Cc1ccc2c(c1)OCO2)S(=O)(=O)c1ccc(N)cc1 | 1.7 nM | 150 nM | –
Cc1ccc(S(=O)(=O)N(CC(C)C)[C@@H](CCCCNC(=O)N(CCc2ccccc2)Cc2ccccc2)C(=O)O)cc1 | > 300 nM | – | –
CC(C)CCN([C@H](CO)CCCCNC(=O)N(Cc1ccc(C(F)(F)F)cc1)Cc1ccc2c(c1)OCO2)S(=O)(=O)c1ccc(N)cc1 | 3 nM | – | > 10000 nM
CC(C)CN([C@H](CO)CCCCNC(=O)N(Cc1ccc2c(c1)OCO2)Cc1cccs1)S(=O)(=O)c1ccc(N)cc1 | 2 nM | 4000 nM | –
CC(C)CN([C@H](CO)CCCCNC(=O)N(Cc1ccccc1)Cc1ccccc1)S(=O)(=O)c1ccc(N)cc1 | 12 nM | 3000 nM | –
Cc1ccc(S(=O)(=O)N(CC(C)C)[C@@H](CCCCNC(=O)NCc2ccccn2)C(=O)O)cc1 | > 300 nM | – | –
CC(C)CCN([C@H](CO)CCCCNC(=O)N(Cc1ccc([N+](=O)[O-])cc1)Cc1ccc2c(c1)OCO2)S(=O)(=O)c1ccc(N)cc1 | 2.2 nM | – | 845 nM
Cc1ccc(S(=O)(=O)N(CC(C)C)[C@H](CO)CCCCNC(=O)N(Cc2ccccc2)Cc2ccccc2)cc1 | 15 nM | – | –
Cc1ccc(S(=O)(=O)N(CC(C)C)[C@@H](CCCCNC(=O)NCCc2ccccc2)C(=O)O)cc1 | 204 nM | – | –
CC(C)CN([C@H](CO)CCCCNC(=O)N(Cc1ccccc1)Cc1ccc2c(c1)OCO2)S(=O)(=O)c1ccc(N)cc1 | 2.6 nM | 1400 nM | –
CC(C)CCN([C@H](CO)CCCCNC(=O)N(Cc1ccc(F)cc1)Cc1ccc2c(c1)OCO2)S(=O)(=O)c1ccc(N)cc1 | 4.9 nM | – | 1200 nM
CC(C)CCN([C@H](CO)CCCCNC(=O)N(Cc1ccc2c(c1)OCO2)Cc1cccs1)S(=O)(=O)c1ccc(N)cc1 | 1.4 nM | – | 800 nM

Structure (SMILES) | Ki [1] | EC50 [2] | EC50 [3]
CC(C)CN([C@H](CO)CCCCNC(=O)N(Cc1ccc(F)cc1)Cc1ccc2c(c1)OCO2)S(=O)(=O)c1ccc(N)cc1 | 2 nM | 488 nM | –
COc1ccc(CN(Cc2ccc3c(c2)OCO3)C(=O)NCCCC[C@@H](CO)N(CCC(C)C)S(=O)(=O)c2ccc(N)cc2)cc1OC | 3 nM | – | –
COc1cccc(CN(Cc2ccc3c(c2)OCO3)C(=O)NCCCC[C@@H](CO)N(CCC(C)C)S(=O)(=O)c2ccc(N)cc2)c1 | 2.2 nM | – | –
CC(C)CCN([C@H](CO)CCCCNC(=O)N(Cc1ccc(F)cc1)Cc1ccc2c(c1)OCCO2)S(=O)(=O)c1ccc(N)cc1 | 5.4 nM | – | –
COc1cccc(CN(Cc2ccc3c(c2)OCO3)C(=S)NCCCC[C@@H](CO)N(CCC(C)C)S(=O)(=O)c2ccc(N)cc2)c1 | 2.6 nM | – | –
CC(C)CN([C@H](CO)CCCCNC(=O)N(Cc1ccsc1)Cc1ccc2c(c1)OCO2)S(=O)(=O)c1ccc(N)cc1 | 6.3 nM | 5000 nM | –
CC(C)CN([C@H](CO)CCCCNC(=O)N(Cc1ccccc1)Cc1ccc(F)cc1F)S(=O)(=O)c1ccc(N)cc1 | 12 nM | 3200 nM | –
CC(C)CN([C@H](CO)CCCCNC(=O)N(Cc1ccccc1)Cc1cccs1)S(=O)(=O)c1ccc(N)cc1 | 11 nM | 5000 nM | –
CC(C)CN([C@H](CO)CCCCNC(=O)N(Cc1ccc(C(F)(F)F)cc1)Cc1ccc2c(c1)OCO2)S(=O)(=O)c1ccc(N)cc1 | 2.5 nM | 1600 nM | –
CC(C)CCN([C@H](CO)CCCCNC(=O)N(Cc1ccccc1)Cc1ccc2c(c1)OCO2)S(=O)(=O)c1ccc(N)cc1 | 4.1 nM | – | 871 nM
COc1ccc(CN(Cc2ccc3c(c2)OCO3)C(=S)NCCCC[C@@H](CO)N(CCC(C)C)S(=O)(=O)c2ccc(N)cc2)cc1 | 3.6 nM | – | –
COc1ccc(CN(Cc2ccc3c(c2)OCO3)C(=S)NCCCC[C@@H](CO)N(CCC(C)C)S(=O)(=O)c2ccc(N)cc2)cc1OC | 2.9 nM | – | –
CC(C)CN([C@H](CO)CCCCNC(=O)N(Cc1ccc([N+](=O)[O-])cc1)Cc1ccc2c(c1)OCO2)S(=O)(=O)c1ccc(N)cc1 | 2 nM | 620 nM | –
CC(C)CCN([C@H](CO)CCCCNC(=O)N(Cc1ccccc1)Cc1cccc2c1OCO2)S(=O)(=O)c1ccc(N)cc1 | 4 nM | – | > 10000 nM
Cc1ccc(S(=O)(=O)N(CC(C)C)[C@@H](CCCCNC(=O)N(Cc2ccccc2)C(C)C)C(=O)O)cc1 | 19 nM | – | –
CC(C)CN([C@H](CO)CCCCNC(=O)N(Cc1ccccc1)Cc1ccc(F)cc1)S(=O)(=O)c1ccc(N)cc1 | 3.3 nM | > 10000 nM | –
CC(C)CN([C@H](CO)CCCCNC(=O)N(Cc1ccccc1)Cc1cccnc1)S(=O)(=O)c1ccc(N)cc1 | 34 nM | 8500 nM | –
CC(C)CN([C@H](CO)CCCCNC(=O)N(Cc1ccccc1)Cc1ccncc1)S(=O)(=O)c1ccc(N)cc1 | 90 nM | > 10000 nM | –
Cc1ccc(S(=O)(=O)N(CC(C)C)[C@@H](CCCCNC(=O)N(C(C)C)C(C)C)C(=O)O)cc1 | 300 nM | – | –
